Series [1] in a line: Inhibition of Influenza A virus H5N1 C-terminal PA interaction to N-terminal PB1 (1 to 25) expressed in human 293T cells by ELISA. The class given is cell-based.
Series [2] can be described thus: Cytotoxicity against MDCK cells. The class given is cell-based, Canis lupus familiaris. To be noted: dog.

Broadly, the IC50 is the point on the concentration scale where inhibition reaches its midpoint. Read a low IC50 as greater potency in that assay. One may read the CC50 as the concentration that lowers cell viability or growth by half.

Turning to `COc1ccc(-c2cc(-c3ccccc3)nc(SCC(=O)Nc3ccccc3)c2C#N)cc1OC`, it took 125 µM to reach half-maximal inhibition in series [1] (IC50). This compound also returned a CC50 in series [2] of 100 µM.
As for `CCOC(=O)c1ccc(NC(=O)CSc2nc(-c3ccccc3)cc(-c3ccc(OCc4ccccc4)c(OCC)c3)c2C#N)cc1`, the IC50 in series [1] stood at 30 µM. The compound also yielded a CC50 in series [2] of 100 µM.
Turning to `Cc1ccc(-c2cc(-c3ccccc3)nc(S[C@H](C)C(=O)Nc3cccc(Cl)c3)c2C#N)cc1`, the IC50 in series [1] amounted to 125 µM. In addition, half-maximal cytotoxicity in series [2] (CC50) was put at 100 µM.
The like results for `Cc1ccc(-c2cc(-c3ccccc3)nc(SCC(=O)Nc3cccc(Cl)c3)c2C#N)cc1` were, in that order, 180 µM and 100 µM.
Compound `N#Cc1c(-c2cccc(Br)c2)cc(-c2ccccc2)nc1SCC(=O)Nc1ccc(Br)cc1` yielded an IC50 in series [1] of 35 µM. The CC50 in series [2] came out at 100 µM.
Consider `Cc1ccc(-c2cc(-c3ccccc3)nc(SCC(=O)Nc3cccc(C)c3)c2C#N)cc1`, for which the IC50 in series [1] is 80 µM. Also, it took 100 µM to reach half-maximal cytotoxicity in series [2] (CC50).
The like results for `Cc1ccc(-c2cc(-c3ccccc3)nc(S[C@@H](C)C(=O)Nc3ccc(C)c(C)c3)c2C#N)cc1` were, in that order, 180 µM and 100 µM.

The values above are taken from ChEMBL document CHEMBL3098103, “High-throughput docking for the identification of new influenza A virus polymerase inhibitors targeting the PA-PB1 protein-protein interaction” (Bioorg Med Chem Lett, 2014).
